The values below are quoted from earlier work in patent US20090214599A1, “PROTON PUMP INHIBITOR FORMULATIONS, AND METHODS OF PREPARING AND USING SUCH FORMULATIONS” (AGI THERAPEUTICS PLC, priority 2008, published 2009).

The structures appear in SMILES notation.

The conditions of data set [1]: healthy subjects.
The conditions of data set [2]: pH <4.

Consider `COc1ccc2[nH]c([S+]([O-])Cc3ncc(C)c(OC)c3C)nc2c1` (stereo not drawn) [omeprazole], for which the Protein binding result is given as “approximately 95%”. Further, the total body clearance in data set [1] was 500 to 600 mL/min. For the same compound, the “half-life of degradation in acid conditions” value in data set [2] is about 10 min.
